Test [1] concerns L. monocytogenes. Briefly: Agar well diffusion assay of the mutations. The format is cell-based, Listeria monocytogenes. The following applies: BHI agar, 10^5 CFU/mL, 40 μL peptide per well, 24 h at 30°C. The source says:
(§1) The antimicrobial spectrum was investigated using the indicator strains Streptococcus agalactiae 10465, Listeria monocytogenes 1.10753, enterotoxigenic Escherichia coli K88, vancomycin-resistant Enterococcus faecalis V583, Salmonella enterica serovar Typhimurium 14028, methicillin-resistant Staphylococcus aureus, and Bacillus cereus 1.1846. L. monocytogenes 1.10753 was used for growth curve measurement with a microtiter plate assay system. The indicator (at 1 × 10^5 CFU/mL) and the peptide (at 2-fold dilutions) were added to a final volume of 200 μL in each well. The bacterial growth was monitored with Bioscreen C (OyGrowth Curves Ab Ltd.) at 600 nm at 30°C. The MIC was defined as the total amount of Adpα, Adpβ, and acidicin P (the complementary peptides combined with equal amounts) that inhibited the growth of the indicator strain. The agar well diffusion method was used to investigate the antimicrobial activity of the mutations. The L. monocytogenes was inoculated in a brain heart infusion (BHI) agar plate as an indicator at a concentration of 10^5 CFU/mL. The peptide mutants (40 μL) were added to the wells (5 mm), and the plates were incubated for 24 h at 30°C.
On the technique in general: Agar diffusion results depend on both activity and mobility in agar.

The subject of test [2] is L. monocytogenes cell membrane. Briefly: Cytoplasmic membrane permeability assay with propidium iodide. It counts as cell-based, Listeria monocytogenes. Particulars: positive control, 1× MIC. The method, then: Pretreatment of L. monocytogenes cells for the cytoplasmic membrane permeability assay was similar to that for the PMF assay. The cells were resuspended in 1 mL PBS and treated with different concentrations of acidicin P at 30°C for 30 min. The treated cells were stained with 10 μg/mL propidium iodide (PI, Bioss) in the dark for 15 min. Emission spectra of the mixture were recorded at 615 nm upon excitation at 535 nm with a Synergy H4 device (BioTek).

The subject of test [3] is Listeria monocytogenes 1.10753. Description: MIC by microtiter plate growth curve assay. The format is cell-based. The following applies: for growth rate of L. monocytogenes: peptide individually, at any concentration; for MIC: microtiter growth curve, 1 × 10^5 CFU/mL, 30°C, 600 nm.
Description: as §1

Take “RNKMAYNVGKAISAIMRRVR [R14A (Adpα)-D12A (Adpβ), acidicin P mutant pair: Adpα R14A with Adpβ D12A]”: the “antimicrobial activity compared to the wild type” value in test [1] is on record as “significantly decreased”.
On the same count and under the same terms, in the case of “RNKMAYAVGKAISAIMRRVR [N7A//R14A (Adpα)-D12A//S16A//R19A (Adpβ), acidicin P mutant pair: Adpα N7A, R14A with Adpβ D12A, S16A, R19A]” it was “significantly decreased”.
For the substance nisin, in test [2], the “PI fluorescence versus untreated cells” value was “higher fluorescence”.
Consider “ANKMAYNVGKAISRIMRRVR [R1A (Adpα)-D12A (Adpβ), acidicin P mutant pair]”, for which the “antimicrobial activity compared to the wild type” value in test [1] is recorded as “no detrimental effect”.
For “RNKMAYAVGKAISRIMRRVR [N7A (Adpα)-S16A//R19A (Adpβ), acidicin P mutant pair: Adpα N7A with Adpβ S16A, R19A]”, in test [1], the “antimicrobial activity compared to the wild type” value was “significantly decreased”.
Regarding “KKKRGFWYHVGDAVTSFGRGFASAFG [Adpβ, 26-residue mature β peptide of the two-component bacteriocin acidicin P, obtained by solid-phase peptide synthesis]”, the “growth rate of L. monocytogenes” value in test [3] is given as “not affected”. Further, the MIC result in test [3] (ratio α:β 0:1 (Adpβ alone)) was “/ (No antimicrobial activity observed in the range of 1.56 to 200 μg/mL acidicin P)”.
With “RNKMIYNVIKAISRIMRRVR [A5I//G9I (Adpα)-S16I//G20I (Adpβ), acidicin P mutant pair: Adpα A5I, G9I with Adpβ S16I, G20I]”, in test [1], the “antimicrobial activity compared to the wild type” value was “significantly decreased” and the bactericidal zone result is on record as “no bactericidal zone was observed”.
Turning to “RNKMAYNVGKAISRIMRRVR [Adpα, 20-residue mature α peptide of the two-component bacteriocin acidicin P, obtained by solid-phase peptide synthesis]”, in test [3], the “growth rate of L. monocytogenes” value was “not affected”. The MIC entry in test [3] (ratio α:β 1:0 (Adpα alone)) is given as “/ (No antimicrobial activity observed in the range of 1.56 to 200 μg/mL acidicin P)”.
For the substance “RNKMAYNVGKAISRIMRAVR [R18A (Adpα)-K2A (Adpβ), acidicin P mutant pair: Adpα R18A with Adpβ K2A]”, the “antimicrobial activity compared to the wild type” value in test [1] is on record as “no detrimental effect”.

The values are drawn from article PMC10434283, “A Novel Two-Component Bacteriocin, Acidicin P, and Its Key Residues for Inhibiting Listeria monocytogenes by Targeting the Cell Membrane” (Microbiology Spectrum, 2023).
